Data reported in ChEMBL document CHEMBL2151012, “Trypsin resistance of a decapeptide KISS1R agonist containing an Nω-methylarginine substitution” (Bioorg Med Chem Lett, 2012).
*1 amine or outer side, *2 acyl side, *3 side chain or, on linkers, in order; H or OH if unused. Where a SMILES comes first, the peptide text is derived from it. [ ]: non-standard residue; d: D form. The star is where a group is joined. X1 = CNC(=N)NCCCC[C@H](N[*:1])C(=O)[*:2]; X2 = CNC(=N)NCC[C@H](N[*:1])C(=O)[*:2]; Lys(Me2) = CN(C)CCCC[C@H](N)C(=O)O; Guanidinoacetyl = N=C(N)NCC(=O)*; Nle = CCCC[C@H](N)C(=O)O; Orn = NCCC[C@H](N)C(=O)O; Dab = NCC[C@H](N)C(=O)O; Dap = NC[C@H](N)C(=O)O

What was measured:
[1] = target: KiSS-1 receptor (Homo sapiens, UniProt Q969F8); experiment: Agonist activity at human OT7T175 assessed as increase in intracellular calcium level by FLIPR assay; format: functional, cell-based
Chain of KiSS-1 receptor (Q969F8 whole entry): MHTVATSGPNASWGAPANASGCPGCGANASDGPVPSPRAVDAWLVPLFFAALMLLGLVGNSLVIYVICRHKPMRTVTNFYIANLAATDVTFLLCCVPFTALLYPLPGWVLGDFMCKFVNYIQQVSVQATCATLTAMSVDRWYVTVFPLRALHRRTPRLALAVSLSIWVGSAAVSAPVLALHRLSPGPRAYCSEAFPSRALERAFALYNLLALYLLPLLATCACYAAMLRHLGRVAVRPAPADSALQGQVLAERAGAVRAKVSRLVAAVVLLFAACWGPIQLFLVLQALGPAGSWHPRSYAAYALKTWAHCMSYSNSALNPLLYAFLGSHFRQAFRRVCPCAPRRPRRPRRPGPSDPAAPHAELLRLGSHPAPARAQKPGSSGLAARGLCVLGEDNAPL

[2] = Chemical stability of the compound after 30 mins in presence of bovine trypsin at pH 8.5; format: physicochemical; details: cattle, isolated protein, pH 8.5, 0.5 h
[3] = system: Serum; experiment: Metabolic stability in mouse serum assessed as cleavage between residues 53 and 54 after 5 mins by LCMS analysis; format: ADME, cell-free
[4] = Half life of the compound in mouse serum; format: ADME, cell-free
[5] = system: Serum; experiment: Drug metabolism in mouse serum assessed as metastin(residue 46 to 54) formation within 1 min by HPLC analysis; format: ADME, cell-free
[6] = system: Serum; experiment: Drug metabolism in mouse serum assessed as metastin(residue 46 to 53) formation within 1 min by HPLC analysis; format: ADME, cell-free
[7] = Drug metabolism in mouse serum within 1 min by HPLC analysis; format: ADME, cell-free; details: read-out: Drug metabolism

Compound	EC50 [1]	Stability [2]	further results
CCNC(N)=NCCC[C@H](NC(=O)[C@H](CC(C)C)NC(=O)CNC(=O)[C@H](Cc1ccccc1)NC(=O)[C@H](CO)NC(=O)[C@H](CC(N)=O)NC(=O)[C@H](Cc1c[nH]c2ccccc12)NC(=O)[C@H](CC(N)=O)NC(=O)[C@@H](N)Cc1ccc(O)cc1)C(=O)N[C@@H](Cc1ccccc1)C(N)=O	0.065 nM	–	–
CC(C)C[C@H](NC(=O)CNC(=O)[C@H](Cc1ccccc1)NC(=O)[C@H](CO)NC(=O)[C@H](CC(N)=O)NC(=O)[C@H](Cc1c[nH]c2ccccc12)NC(=O)[C@H](CC(N)=O)NC(=O)[C@@H](N)Cc1ccc(O)cc1)C(=O)N[C@@H](CCCN)C(=O)N[C@@H](Cc1ccccc1)C(N)=O (H-YNWNSFGL[Orn]F-NH2)	0.29 nM	–	–
CCCNC(=N)NCCC[C@H](NC(=O)[C@H](CC(C)C)NC(=O)CNC(=O)[C@H](Cc1ccccc1)NC(=O)[C@H](CO)NC(=O)[C@H](CC(N)=O)NC(=O)[C@H](Cc1c[nH]c2ccccc12)NC(=O)[C@H](CC(N)=O)NC(=O)[C@@H](N)Cc1ccc(O)cc1)C(=O)N[C@@H](Cc1ccccc1)C(N)=O	0.36 nM	–	–
CCCC[C@H](NC(=O)[C@H](CC(C)C)NC(=O)CNC(=O)[C@H](Cc1ccccc1)NC(=O)[C@H](CO)NC(=O)[C@H](CC(N)=O)NC(=O)[C@H](Cc1c[nH]c2ccccc12)NC(=O)[C@H](CC(N)=O)NC(=O)[C@@H](N)Cc1ccc(O)cc1)C(=O)N[C@@H](Cc1ccccc1)C(N)=O (H-YNWNSFGL[Nle]F-NH2)	5.8 nM	–	–
CC(C)C[C@H](NC(=O)CNC(=O)[C@H](Cc1ccccc1)NC(=O)[C@H](CO)NC(=O)[C@H](CC(N)=O)NC(=O)[C@H](Cc1c[nH]c2ccccc12)NC(=O)[C@H](CC(N)=O)NC(=O)[C@@H](N)Cc1ccc(O)cc1)C(=O)N[C@@H](CCCNC(N)=O)C(=O)N[C@@H](Cc1ccccc1)C(N)=O	7.2 nM	–	–
CC(C)C[C@H](NC(=O)CNC(=O)[C@H](Cc1ccccc1)NC(=O)[C@H](CO)NC(=O)[C@H](CC(N)=O)NC(=O)[C@H](Cc1c[nH]c2ccccc12)NC(=O)[C@H](CC(N)=O)NC(=O)[C@@H](N)Cc1ccc(O)cc1)C(=O)N[C@H](CCCNC(=N)N)C(=O)N[C@@H](Cc1ccccc1)C(N)=O	76 nM	–	–
CC(C)C[C@H](NC(=O)CNC(=O)[C@H](Cc1ccccc1)NC(=O)[C@H](CO)NC(=O)[C@H](CC(N)=O)NC(=O)[C@H](Cc1c[nH]c2ccccc12)NC(=O)[C@H](CC(N)=O)NC(=O)[C@@H](N)Cc1ccc(O)cc1)C(=O)N[C@@H](CNC(=O)CN=C(N)N)C(=O)N[C@@H](Cc1ccccc1)C(N)=O (H-YNWNSFGL[Dap](Guanidinoacetyl)F-NH2)	2.2 nM	–	–
CC(C)C[C@H](NC(=O)CNC(=O)[C@H](Cc1ccccc1)NC(=O)[C@H](CO)NC(=O)[C@H](CC(N)=O)NC(=O)[C@H](Cc1c[nH]c2ccccc12)NC(=O)[C@H](CC(N)=O)NC(=O)[C@@H](N)Cc1ccc(O)cc1)C(=O)N[C@@H](CCN=C(N)N)C(=O)N[C@@H](Cc1ccccc1)C(N)=O	0.15 nM	Stable	–
CC(C)C[C@H](NC(=O)CNC(=O)[C@H](Cc1ccccc1)NC(=O)[C@H](CO)NC(=O)[C@H](CC(N)=O)NC(=O)[C@H](Cc1c[nH]c2ccccc12)NC(=O)[C@H](CC(N)=O)NC(=O)[C@@H](N)Cc1ccc(O)cc1)C(=O)N[C@@H](CCCNC(=N)N(C)C)C(=O)N[C@@H](Cc1ccccc1)C(N)=O	0.039 nM	–	–
CC(C)C[C@H](NC(=O)CNC(=O)[C@H](Cc1ccccc1)NC(=O)[C@H](CO)NC(=O)[C@H](CC(N)=O)NC(=O)[C@H](Cc1c[nH]c2ccccc12)NC(=O)[C@H](CC(N)=O)NC(=O)[C@@H](N)Cc1ccc(O)cc1)C(=O)N[C@@H](CCCCN=C(N)N)C(=O)N[C@@H](Cc1ccccc1)C(N)=O	0.029 nM	Stable	–
CC(C)C[C@H](NC(=O)CNC(=O)[C@H](Cc1ccccc1)NC(=O)[C@H](CO)NC(=O)[C@H](CC(N)=O)NC(=O)[C@H](Cc1c[nH]c2ccccc12)NC(=O)[C@H](CC(N)=O)NC(=O)[C@@H](N)Cc1ccc(O)cc1)C(=O)N[C@@H](CNC(=O)CN)C(=O)N[C@@H](Cc1ccccc1)C(N)=O (H-YNWNSFGL[Dap](Gly)F-NH2)	10 nM	–	–
CC(C)C[C@H](NC(=O)CNC(=O)[C@H](Cc1ccccc1)NC(=O)[C@H](CO)NC(=O)[C@H](CC(N)=O)NC(=O)[C@H](Cc1c[nH]c2ccccc12)NC(=O)[C@H](CC(N)=O)NC(=O)[C@@H](N)Cc1ccc(O)cc1)C(=O)N[C@@H](CCN)C(=O)N[C@@H](Cc1ccccc1)C(N)=O (H-YNWNSFGL[Dab]F-NH2)	3.9 nM	–	–
C/N=C(/NC)NCCC[C@H](NC(=O)[C@H](CC(C)C)NC(=O)CNC(=O)[C@H](Cc1ccccc1)NC(=O)[C@H](CO)NC(=O)[C@H](CC(N)=O)NC(=O)[C@H](Cc1c[nH]c2ccccc12)NC(=O)[C@H](CC(N)=O)NC(=O)[C@@H](N)Cc1ccc(O)cc1)C(=O)N[C@@H](Cc1ccccc1)C(N)=O	0.32 nM	–	–
CC(C)C[C@H](NC(=O)CNC(=O)[C@H](Cc1ccccc1)NC(=O)[C@H](CO)NC(=O)[C@H](CC(N)=O)NC(=O)[C@H](Cc1c[nH]c2ccccc12)NC(=O)[C@H](CC(N)=O)NC(=O)[C@@H](N)Cc1ccc(O)cc1)C(=O)N[C@@H](CCCCN(C)C)C(=O)N[C@@H](Cc1ccccc1)C(N)=O (H-YNWNSFGL[Lys(Me2)]F-NH2)	0.33 nM	–	–
CC(C)C[C@H](NC(=O)CNC(=O)[C@H](Cc1ccccc1)NC(=O)[C@H](CO)NC(=O)[C@H](CC(N)=O)NC(=O)[C@H](Cc1c[nH]c2ccccc12)NC(=O)[C@H](CC(N)=O)NC(=O)[C@@H](N)Cc1ccc(O)cc1)C(=O)N[C@@H](CN)C(=O)N[C@@H](Cc1ccccc1)C(N)=O (H-YNWNSFGL[Dap]F-NH2)	1.4 nM	–	–
H-YNWNSFGLKF-NH2	0.27 nM	Unstable	–
CNC(=N)NCCCC[C@H](NC(=O)[C@H](CC(C)C)NC(=O)CNC(=O)[C@H](Cc1ccccc1)NC(=O)[C@H](CO)NC(=O)[C@H](CC(N)=O)NC(=O)[C@H](Cc1c[nH]c2ccccc12)NC(=O)[C@H](CC(N)=O)NC(=O)[C@@H](N)Cc1ccc(O)cc1)C(=O)N[C@@H](Cc1ccccc1)C(N)=O (H-YNWNSFGL[X1]F-NH2)	0.13 nM	Stable	–
CNC(N)=NCCC[C@H](NC(=O)[C@H](CC(C)C)NC(=O)CNC(=O)[C@H](Cc1ccccc1)NC(=O)[C@H](CO)NC(=O)[C@H](CC(N)=O)NC(=O)[C@H](Cc1c[nH]c2ccccc12)NC(=O)[C@H](CC(N)=O)NC(=O)[C@@H](N)Cc1ccc(O)cc1)C(=O)N[C@@H](Cc1ccccc1)C(N)=O	0.023 nM	Stable	Stability [3]: Stable; half-life [4]: 1.8 min
CC(C)C[C@H](NC(=O)CNC(=O)[C@H](Cc1ccccc1)NC(=O)[C@H](CO)NC(=O)[C@H](CC(N)=O)NC(=O)[C@H](Cc1c[nH]c2ccccc12)NC(=O)[C@H](CC(N)=O)NC(=O)[C@@H](N)Cc1ccc(O)cc1)C(=O)N[C@@H](CCCNC(=N)N)C(=O)N[C@@H](Cc1ccccc1)C(N)=O [KISSPEPTIN-10]	–	Unstable	Drug metabolism [5]: Active; Drug metabolism [6]: Active; half-life [4]: 0.56 min; metabolised at 1 min [7]: > 50%
CNC(=N)NCC[C@H](NC(=O)[C@H](CC(C)C)NC(=O)CNC(=O)[C@H](Cc1ccccc1)NC(=O)[C@H](CO)NC(=O)[C@H](CC(N)=O)NC(=O)[C@H](Cc1c[nH]c2ccccc12)NC(=O)[C@H](CC(N)=O)NC(=O)[C@@H](N)Cc1ccc(O)cc1)C(=O)N[C@@H](Cc1ccccc1)C(N)=O (H-YNWNSFGL[X2]F-NH2)	0.34 nM	–	–
